Reference: patent US20240158370A1, “CK1 alpha AND DUAL CK1 alpha / GSPT1 DEGRADING COMPOUNDS” (Innovo Therapeutics, Inc., priority 2022, published 2024)

How the values were obtained:
Type in all cases: cell-based
[1] = biological target: T1, CK1α (Homo sapiens, UniProt P48729+Q96SW2); test: HiBiT degradation assay, CK1α, Procedure A; settings: six hours incubation
T1 construct: CSNK1A1-HiBit KI HEK293(LgBit) Cells; host or cells: HEK293(LgBit) knock-in cells
Procedure, shortened: (§1)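 Luminescence from HiBiT lytic detection, read after 20 min shaking, gave DC50 and Ymin by 4-parameter fit. Before that, cells (1×10^6 cells/ml, DMEM+10% FBS) sat 6 h at 37° C on 10-point compound series (10 μM–0.005 μM, 0.1% DMSO).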

[2] = test system: Z-138 cells; test: Z-138 Proliferation Assay (Cell Titer-Glo); settings: 72 hours; for Ymin (%): % remaining (percent of DMSO control); for EC50: Homo sapiens, Cell Titer-Glo, 4-parameter curve fit
Experimental: Z-138 Proliferation Assay
Z-138 cells were cultured in IMDM Medium supplemented with 10% heat in-activated fetal bovine serum and 1% Penicillin-Streptomycin.
10 mM stocks of compound were made from fresh powder. DMSO was added to solid compound so that the final concentration was 10 mM. Compounds were vortexed and allowed to sit for 5 minutes to ensure complete solubility. Solvated compound was aliquoted into 1 ml Eppendorf tubes and stored in a −20° C. freezer.
Z-138 cells were maintained in culture using standard cell culturing techniques.
Cells were maintained at a density of 0.8×10^6 cells/ml.
Re-constitute cell titer-glo reagent according to manufacturer's protocol.
Z-138 cells were removed from culture and cell viability and density were determined using a CellDrop™ Automated Cell Counter with Tryphan blue stain according to manufacturer's protocols. Cells were centrifuged and resuspended using fresh media to a cell density of 0.1×10^6 cells/ml. […] 40 μl of cell suspension was added to the wells of a 384 well tissue culture plate (4,000 cells/well final). Upon completing the addition of the cells to the plate, the plates were centrifuged for 30 seconds at 300 rpms to help the cells settle and to bring air bubbles to the top of the wells. Air bubbles were popped using a pipette tip.
10-point dose response curves were performed using a D300e Digital Dispenser. The highest concentration of compound used in the assay was 10,000 nM. 1:2 dilutions were performed over a 10-point range with the final DMSO concentration being 0.1%. The cells were cultured for 72 hours in the presence of compound.
After 72 hours, the cell plates were removed from the incubator and allowed to equilibrate to room temperature (about 15 minutes). 20 μl of cell titer-glo reagent was added to each well of the 384 well plate. Incubated the plate for 30 minutes in the dark. After 30 minutes, ensured that there were no air bubbles in the plate (popped bubbles with pipette tip if necessary) and analyzed plate using a luminometer.
EC50 curves were generated using Prism Graph Pad. In brief, POCs (percent of control, compound/DMSO control×100) were plotted against the compound concentrations (log scale). EC50 curves were generated using a 4-parameter curve fit.

[3] = biological target: GSPT1 (Homo sapiens, UniProt P15170+Q96SW2); test: HiBiT degradation assay, GSPT1, Procedure A; parameters: HiBit-GSPT1 KI HEK293(LgBit) Cells; host or cells: HEK293(LgBit) knock-in cells; settings: six hours incubation
Procedure, shortened: as §1

T1 sequence (P48729 whole entry): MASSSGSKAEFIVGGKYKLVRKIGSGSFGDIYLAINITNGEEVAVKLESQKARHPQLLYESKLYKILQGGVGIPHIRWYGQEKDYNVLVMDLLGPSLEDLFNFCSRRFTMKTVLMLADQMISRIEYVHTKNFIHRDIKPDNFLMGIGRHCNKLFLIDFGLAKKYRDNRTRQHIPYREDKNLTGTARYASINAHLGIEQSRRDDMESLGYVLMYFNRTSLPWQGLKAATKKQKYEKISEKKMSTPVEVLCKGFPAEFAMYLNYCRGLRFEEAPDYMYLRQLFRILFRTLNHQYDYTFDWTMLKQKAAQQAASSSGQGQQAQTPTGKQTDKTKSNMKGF
T1 sequence (Q96SW2 whole entry): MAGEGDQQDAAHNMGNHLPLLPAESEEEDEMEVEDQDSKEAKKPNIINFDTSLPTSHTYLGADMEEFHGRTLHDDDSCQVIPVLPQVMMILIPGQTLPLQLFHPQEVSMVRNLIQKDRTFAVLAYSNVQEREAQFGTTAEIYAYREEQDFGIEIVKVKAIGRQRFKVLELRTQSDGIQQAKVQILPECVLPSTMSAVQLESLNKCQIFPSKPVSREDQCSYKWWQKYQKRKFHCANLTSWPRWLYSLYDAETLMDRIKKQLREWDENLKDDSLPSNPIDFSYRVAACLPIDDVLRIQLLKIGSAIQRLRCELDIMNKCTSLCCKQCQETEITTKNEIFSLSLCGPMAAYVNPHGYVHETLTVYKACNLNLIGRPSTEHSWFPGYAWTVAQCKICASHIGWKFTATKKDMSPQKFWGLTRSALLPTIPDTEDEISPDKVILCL
T1 sequence (Q16531 whole entry partner): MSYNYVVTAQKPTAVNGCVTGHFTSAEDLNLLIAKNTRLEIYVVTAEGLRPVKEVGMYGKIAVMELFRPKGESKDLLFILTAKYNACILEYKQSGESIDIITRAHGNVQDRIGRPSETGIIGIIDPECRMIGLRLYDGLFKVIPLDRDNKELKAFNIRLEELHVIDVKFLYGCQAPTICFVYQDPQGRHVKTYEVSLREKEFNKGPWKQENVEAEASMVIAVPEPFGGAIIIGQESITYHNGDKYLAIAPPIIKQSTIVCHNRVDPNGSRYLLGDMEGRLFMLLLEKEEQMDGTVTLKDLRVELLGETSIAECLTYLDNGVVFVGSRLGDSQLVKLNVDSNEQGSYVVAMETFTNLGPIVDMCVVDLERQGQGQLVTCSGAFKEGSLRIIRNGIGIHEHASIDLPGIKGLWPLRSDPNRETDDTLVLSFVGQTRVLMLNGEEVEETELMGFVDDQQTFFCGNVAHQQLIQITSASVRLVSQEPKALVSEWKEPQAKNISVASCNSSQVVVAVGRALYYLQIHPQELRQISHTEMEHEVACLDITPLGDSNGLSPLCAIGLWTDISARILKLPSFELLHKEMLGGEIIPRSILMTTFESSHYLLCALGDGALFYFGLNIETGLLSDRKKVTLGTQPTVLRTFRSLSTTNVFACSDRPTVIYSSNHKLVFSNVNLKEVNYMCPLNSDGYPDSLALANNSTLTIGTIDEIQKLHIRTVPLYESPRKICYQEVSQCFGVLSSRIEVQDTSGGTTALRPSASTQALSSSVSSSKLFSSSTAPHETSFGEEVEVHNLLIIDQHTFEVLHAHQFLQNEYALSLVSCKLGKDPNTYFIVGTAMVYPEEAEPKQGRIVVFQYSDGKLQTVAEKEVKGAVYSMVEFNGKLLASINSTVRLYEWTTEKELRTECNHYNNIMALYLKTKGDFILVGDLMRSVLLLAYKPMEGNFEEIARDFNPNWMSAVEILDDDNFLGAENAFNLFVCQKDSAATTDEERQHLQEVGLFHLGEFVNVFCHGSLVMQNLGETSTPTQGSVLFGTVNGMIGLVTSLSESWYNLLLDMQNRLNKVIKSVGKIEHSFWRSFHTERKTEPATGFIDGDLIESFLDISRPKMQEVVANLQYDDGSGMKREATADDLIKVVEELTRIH
Sequence of GSPT1 (P15170 whole entry): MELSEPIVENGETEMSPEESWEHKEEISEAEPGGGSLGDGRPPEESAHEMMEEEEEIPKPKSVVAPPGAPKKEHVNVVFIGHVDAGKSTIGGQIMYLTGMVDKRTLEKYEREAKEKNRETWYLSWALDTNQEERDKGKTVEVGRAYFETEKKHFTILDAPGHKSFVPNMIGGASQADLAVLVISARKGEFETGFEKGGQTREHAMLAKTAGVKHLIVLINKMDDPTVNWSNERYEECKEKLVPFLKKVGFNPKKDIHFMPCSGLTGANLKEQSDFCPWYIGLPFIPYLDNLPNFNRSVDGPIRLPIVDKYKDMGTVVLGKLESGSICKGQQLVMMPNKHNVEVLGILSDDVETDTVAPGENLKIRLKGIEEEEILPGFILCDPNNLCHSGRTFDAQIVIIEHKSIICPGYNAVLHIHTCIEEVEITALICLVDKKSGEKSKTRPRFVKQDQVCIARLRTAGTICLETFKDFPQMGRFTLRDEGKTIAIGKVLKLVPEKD
Sequence of GSPT1 (Q96SW2 whole entry): as the sequence (Q96SW2 whole entry) above
Sequence of GSPT1 (Q16531 whole entry partner): as the sequence (Q16531 whole entry partner) above

SMILES | CK1α Ymin [1] | DC50 [1] [nM] | Ymin (%) [2] | EC50 [2] [nM] | DC50 [3] [nM] | GSPT1 Ymin [3]
Cn1c(C(F)(F)F)nc(-c2ccc3c(c2)CN(C2CCC(=O)NC2=O)C3=O)c1-c1ccccc1 (stereo not drawn) [Example 52, 3-(5-(1-Methyl-5-phenyl-2-(trifluoromethyl)-1H-imidazol-4-yl)-1-oxoisoindolin-2-yl)piperidine-2,6-dione] | C (C = 0-10% remaining) | < 25 | D (0-10% remaining) | < 10 | < 25 | F (F = >75-100% remaining)
COc1ccc(-c2c(-c3ccc4c(c3)CN(C3CCC(=O)NC3=O)C4=O)cnn2C)c(F)c1 (stereo not drawn) [Example 64] | C (C = 0-10% remaining) | < 25 | E (>10-25% remaining) | < 10 | ≥ 25 | F (F = >75-100% remaining)
Cc1ccc(-c2c(-c3ccc4c(c3)CN(C3CCC(=O)NC3=O)C4=O)cnn2C)cc1 (stereo not drawn) [Example 72] | D (D = >10- 25% remaining) | < 25 | E (>10-25% remaining) | 10 to 100 | ≥ 25 | F (F = >75-100% remaining)
Cn1cnc(-c2ccc3c(c2)CN(C2CCC(=O)NC2=O)C3=O)c1-c1ccc(F)c(C#N)c1 (stereo not drawn) [Example 184] | D (D = >10- 25% remaining) | < 25 | D (0-10% remaining) | 10 to 100 | ≥ 25 | C (C = 0-10% remaining)
O=C1CCC(N2Cc3cc(-c4cnn5c4-c4ccccc4C5)ccc3C2=O)C(=O)N1 (stereo not drawn) [Example 212, 3-(1-Oxo-5-(8H-pyrazolo[5,1-a]isoindol-3-yl)isoindolin-2-yl)piperidine-2,6-dione] | D (D = >10- 25% remaining) | < 25 | D (0-10% remaining) | 100 to 500 | ≥ 25 | F (F = >75-100% remaining)
CN(C)Cc1ccc(-c2c(-c3ccc4c(c3)CN(C3CCC(=O)NC3=O)C4=O)cnn2C)cc1 (stereo not drawn) [Example 224] | C (C = 0-10% remaining) | < 25 | E (>10-25% remaining) | < 10 | ≥ 25 | F (F = >75-100% remaining)
CN(C)Cc1ccc(-c2c(-c3ccc4c(c3)CN(C3CCC(=O)NC3=O)C4=O)ncn2C)cc1 (stereo not drawn) [Example 269] | C (C = 0-10% remaining) | < 25 | D (0-10% remaining) | < 10 | < 25 | F (F = >75-100% remaining)
Cn1cnc(-c2ccc3c(c2)CN(C2CCC(=O)NC2=O)C3=O)c1-c1cccc(N2CCCC2)c1 (stereo not drawn) [Example 287] | D (D = >10- 25% remaining) | < 25 | D (0-10% remaining) | < 10 | < 25 | F (F = >75-100% remaining)
Cn1cc(-c2c(-c3ccc4c(c3)CN(C3CCC(=O)NC3=O)C4=O)ncn2C)cn1 (stereo not drawn) [Example 319] | C (C = 0-10% remaining) | < 25 | D (0-10% remaining) | 10 to 100 | ≥ 25 | E (E = >25-75% remaining)
Cn1cnc(-c2ccc3c(c2)CN(C2CCC(=O)NC2=O)C3=O)c1-c1cnn2ccccc12 (stereo not drawn) [Example 331] | D (D = >10- 25% remaining) | < 25 | D (0-10% remaining) | 10 to 100 | ≥ 25 | F (F = >75-100% remaining)
